The subject of series [1] is chicken embryo fibroblast (CEF) cells.
Series [2] deals with avian influenza virus KBNP-0028 (KCTC 10866BP). The series is classed as cell-based, A/chicken/Korea/SNU0028/2000(H9N2).

Like-named read-outs stand apart in the source and are kept apart here.

Consider `C=C(C)[C@@H]1CC[C@]2(C=O)CC[C@]3(C)[C@H](CC[C@@H]4[C@@]5(C)CC[C@H](O)C(C)(C)[C@@H]5CC[C@]43C)[C@@H]12` [12B-AJ-26A, betulinic aldehyde], for which the “Cytotoxicity assay (absorbance)” value amounted to 0.352 in series [1] (6.25 μg/mL); 0.326 in series [1] (12.5 μg/mL); 0.324 in series [1] (25 μg/mL); 0.325 in series [1] (50 μg/mL); 0.434 in series [1] (100 μg/mL); 0.421 in series [1] (200 μg/mL). In addition, in series [2], the “Antiviral activity (in words)” value is “showed antiviral activity”.

For the origin of these results see patent publication US20110098261A1, “TRITERPENOID-BASED COMPOUNDS USEFUL AS VIRUS INHIBITORS” (priority 2008, published 2011).
